Legend:
[1] = target: T1, Tyrosine-protein phosphatase non-receptor type 1 (Homo sapiens, UniProt P18031); assay: Inhibition of recombinant human PTP1B expressed in Escherichia coli using pNPP as substrate preincubated for 30 mins followed by substrate addition for 45 mins and measured at 5 mins interval for 30 mins
T1 sequence (P18031 whole entry): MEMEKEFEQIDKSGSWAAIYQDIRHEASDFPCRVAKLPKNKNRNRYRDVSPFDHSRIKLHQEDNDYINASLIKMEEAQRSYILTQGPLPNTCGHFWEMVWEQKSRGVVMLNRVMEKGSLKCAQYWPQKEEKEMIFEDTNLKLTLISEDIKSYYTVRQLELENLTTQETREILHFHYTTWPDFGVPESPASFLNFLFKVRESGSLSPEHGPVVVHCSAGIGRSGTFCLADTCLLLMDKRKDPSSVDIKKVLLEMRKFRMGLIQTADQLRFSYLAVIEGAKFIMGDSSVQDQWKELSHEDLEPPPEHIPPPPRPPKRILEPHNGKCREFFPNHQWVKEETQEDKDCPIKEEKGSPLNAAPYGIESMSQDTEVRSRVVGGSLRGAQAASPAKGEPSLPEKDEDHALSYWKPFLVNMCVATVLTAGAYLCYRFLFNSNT

[2] = target: T1, Tyrosine-protein phosphatase non-receptor type 1; assay: Inhibition of recombinant human PTP1B expressed in Escherichia coli using pNPP as substrate preincubated for 10 mins followed by substrate addition for 30 mins and measured at 5 mins interval for 30 mins
Pieris brassicae = assay: Antifeedant activity in Pieris brassicae measured 24 hrs post leaf feeding by leaf disc method; type: functional, organism-based
Mus musculus [3] = assay: Antinociceptive activity in Kunming mouse model assessed as inhibition of acetic acid-induced writhes at 0.08 mg/kg, ip pretreated for 30 mins followed by acetic acid challenge and measured for 30 mins post acetic acid challenge relative to control; type: functional
Coxsackievirus B3 = assay: Antiviral activity against Coxsackievirus B3 infected in African green monkey Vero cells; type: functional, organism-based; details: Enterovirus B
[4] = target: T1, Tyrosine-protein phosphatase non-receptor type 1; assay: Inhibition of recombinant PTP1B catalytic domain (unknown origin) using pNPP as substrate
Mus musculus [5] = assay: Antinociceptive activity in Kunming mouse model assessed as inhibition of acetic acid-induced writhes at 5 mg/kg, ip pretreated for 15 mins followed by acetic acid challenge and measured for 20 mins post acetic acid challenge relative to control; type: functional
Mus musculus [6] = assay: Antinociceptive activity in ip dosed Kunming mouse model assessed as inhibition of acetic acid-induced writhes pretreated for 15 mins followed by acetic acid challenge and measured for 20 mins post acetic acid challenge; type: functional; details: read-out: ID50 (the source's name)
Influenza A virus = assay: Antiviral activity against Influenza A virus (A/Hanfang/359/95(H3N2)) infected in MDCK cells assessed as reduction in virus-induced cytopathogenicity; type: functional, organism-based
Mus musculus [7] = assay: Antinociceptive activity in Kunming mouse model assessed as inhibition of acetic acid-induced writhes at 10 mg/kg, ip pretreated for 15 mins followed by acetic acid challenge and measured for 20 mins post acetic acid challenge relative to control; type: functional

Cc1cccc(C[C@H]2O[C@]3(C)O[C@@]24[C@@H]([C@@H](O)[C@H](O)C4(C)C)[C@H]3C)c1
IC50 [1]: 32.2 µM

CO[C@H]1C[C@]23C[C@@](C)(O)[C@H](CC[C@H]2[C@](C)(C2=CO[C@H](OC)C(C)(C)C2=O)O1)[C@H]3O
IC50 [2]: 16.7 µM

CO[C@@H]1C[C@]23C[C@@](C)(O)[C@H](CC[C@H]2[C@](C)(C2=CO[C@H](OC)C(C)(C)C2=O)O1)[C@H]3O
IC50 [2]: 19.9 µM

CCC(=O)O[C@@H]1[C@@H](OC(C)=O)[C@@]2([C@](C)(O)CCl)OC(=O)C[C@H]2[C@](C)(O)[C@@H]2CC[C@@H]3[C@@H](OC(C)=O)[C@]12[C@@H](OC(C)=O)[C@@]3(C)OC(C)=O
EC50 (Pieris brassicae): 10.07 microg/cm2

CC(O)C(=O)O[C@@H]1[C@H]2CC[C@H]3[C@@](C)(O)[C@@H]4[C@@H]5O[C@@H]5C(C)(C)[C@@]4(O)[C@H](O)C(=O)[C@@]13C[C@@]2(C)O (stereo partly drawn)
inhibition in vivo at 0.08 mg/kg (Mus musculus [3]): 37.6%

CC(=O)[C@@H]1C[C@@H](O)[C@H]2[C@@H](O)[C@@]1(C[C@H]1OC(=O)C(C)(C)[C@]1(O)CCO)C[C@@]2(C)O
IC50 (Coxsackievirus B3): 27.7 µM

C=C1[C@H]2C[C@H](O)C(C)(C)[C@@]2(O)[C@H](O)C[C@]23C=C(C)[C@H](CC[C@@H]12)[C@H]3O
IC50 [4]: 3.14 µM

CC1=C[C@@H]2O[C@@]3(C)[C@@H]4C[C@H](O)[C@H]1[C@]24C[C@@H](O)[C@@]1(O)[C@H]3[C@@H]2O[C@@H]2C1(C)C
IC50 [2]: 24.3 µM

CC1(C)CCC[C@H](O)[C@@]2(C)[C@@H]3CC[C@@H]4C[C@@]3(C[C@H]2C1=O)C[C@@]4(C)O
inhibition (INH) (Pieris brassicae): 45%

CC(C)(O)[C@]12OC(=O)C[C@H]1[C@](C)(O)[C@@H]1[C@H](O)C[C@@H]3[C@@H](O)[C@@]1([C@H](O)[C@H]2O)[C@@H](O)[C@@]3(C)O
inhibition in vivo at 5 mg/kg (Mus musculus [5]): 69.9% | ED50 (Mus musculus [6]): 0.72 mg/kg

C=C1[C@H]2C[C@H](O)C(C)(C)[C@@]2(O)[C@H](O)C[C@]23C[C@@](C)(O)[C@H](CC[C@@H]12)[C@H]3O
IC50 [4]: 24.5 µM

CC1(C)[C@@H](O)[C@H](Cl)[C@H]2[C@](C)(O)[C@@H]3CC[C@@H]4[C@@H](O)[C@]3(C[C@@]4(C)O)[C@H](O)[C@@H](O)[C@@]21O
inhibition in vivo at 0.08 mg/kg (Mus musculus [3]): 49.8%

CC1(C)[C@H]2O[C@H]2[C@H]2[C@@]3(C)O[C@H](C[C@@]45C=C[C@@H](C[C@H]43)[C@](C)(O)C5)[C@]21C
IC50 (Influenza A virus): 19.2 µM

CC1=C[C@]23C[C@H]1CC[C@H]2[C@]1(C)[C@@H](O)CCCC(C)(C)C(=O)[C@@H]1C3
inhibition (INH) (Pieris brassicae): 45%

CCC(=O)O[C@@H]1[C@H]2CC[C@H]3[C@@](C)(O)[C@@H]4CC(=O)O[C@]4([C@](C)(O)CCl)[C@H](OC(C)=O)[C@@H](OC(C)=O)[C@@]13[C@@H](OC(C)=O)[C@@]2(C)OC(C)=O
EC50 (Pieris brassicae): 5.33 microg/cm2

CC(C)(O)[C@]12OC(=O)C[C@H]1[C@](C)(O)[C@@H]1CC[C@@H]3[C@@H](O)[C@@]1([C@H](O)[C@H]2O)[C@@H](O)[C@@]3(C)O
inhibition in vivo at 5 mg/kg (Mus musculus [5]): 63.5% | ED50 (Mus musculus [6]): 1.24 mg/kg

C[C@]12CC[C@H](O)[C@@]3(C)[C@@H]4CC[C@@H]5C[C@]4(C[C@@]5(C)O)C[C@@]3(OC1=O)C2=O
inhibition in vivo at 10 mg/kg (Mus musculus [7]): 45% | inhibition (INH) (Pieris brassicae): 45%

CO[C@H]1[C@H](O)C(C)(C)[C@@]2(O)[C@H](O)[C@@H](O)[C@]34C[C@@](C)(O)[C@H](CC[C@H]3[C@@](C)(O)[C@H]12)[C@H]4O
inhibition in vivo at 0.08 mg/kg (Mus musculus [3]): 56.8%

Cc1cccc(C[C@H]2O[C@]3(C)O[C@@]24[C@@H]([C@@H](O)[C@H](O)C4(C)C)[C@@H]3C)c1
IC50 [1]: 23 µM

CO[C@@H]1O[C@H]2O[C@@H]3C[C@]45C[C@@](C)(O)[C@H](CC[C@H]4[C@@](C)(O3)[C@H]2CC1(C)C)[C@H]5O
IC50 [2]: 42.4 µM

Source: ChEMBL document CHEMBL4316594, “An overview of grayanane diterpenoids and their biological activities from the Ericaceae family in the last seven years” (Eur J Med Chem, 2019)
